Test results published in patent US6969714B2, “Imidazolo-5-YL-2-anilino-pyrimidines as agents for the inhibition of the cell proliferation” (AstraZeneca AB, priority 2000, dated 2005).

Molecular target: T1, CDK2/Cyclin E (Homo sapiens, UniProt P24941)
T1 construct: The open reading frames of CDK2 and Cyclin E were isolated; made in house; host or cells: Sf21 (Spodoptera frugiperda) insect cells, baculovirus co-infection; the GST-Rb substrate was made in E. coli BL21 (DE3) pLysS
Assay: in vitro kinase assay, Scintillation Proximity Assay, incorporation of [γ-33-P]-ATP into GST-Rb
Assay type: biochemical
Settings: GST-Rb substrate, 0.2 μM ATP, 60 minutes at room temperature, read-out: CDK2 inhibitory activity IC50
Method: The compounds were tested in an in vitro kinase assay in 96 well format using Scintillation Proximity Assay (SPA—obtained from Amersham) for measuring incorporation of [γ-33-P]-Adenosine Triphosphate into a test substrate (GST-Retinoblastoma protein; GST-Rb). In each well was placed the compound to be tested (diluted in DMSO and water to correct concentrations) and in control wells either roscovitine as an inhibitor control or DMSO as a positive control. […]
The plates were sealed with Topseal-S plate sealers, left for two hours then spun at 2500 rpm, 1124×g., for 5 minutes. The plates were read on a Topcount for 30 seconds per well. […]
E. coli paste was resuspended in 10 ml/g of NETN buffer (50 mM Tris pH 7.5, 120 mM NaCl, 1 mM EDTA, 0.5% v/v NP-40, 1 mM PMSF, 1 ug/ml leupeptin, 1 ug/ml aprotinin and 1 ug/ml pepstatin) and sonicated for 2×45 seconds per 100 ml homogenate. […] The final product was analysed by Sodium Dodeca Sulfate (SDS) PAGE (Polyacrylamide gel) using 8-16% Tris-Glycine gels (Novex, San Diego, USA).
The open reading frames of CDK2 and Cyclin E were isolated by reverse transcriptase-PCR using HeLa cell and activated T cell mRNA as a template and cloned into the insect expression vector pVL1393 (obtained from Invitrogen 1995 catalogue number: V1392-20). […]

IC50: 146 nM
Structure (SMILES): Cn1cncc1-c1ccnc(Nc2ccccc2)n1 [Example 14, 2-Anilino-4-(1-methylimidazol-5-yl)pyrimidine]
